In ChEMBL document CHEMBL4346729, “The discovery of novel 3-aryl-indazole derivatives as peripherally restricted pan-Trk inhibitors for the treatment of pain” (Bioorg Med Chem Lett, 2019):
Calls of active or inactive are those of the source. The calls are words filed in the database; no cut-off is given here.

Key:
[1] = target: Mitogen-activated protein kinase kinase kinase kinase 4 (Homo sapiens) (UniProt O95819); test: Inhibition of recombinant human N-terminal GST/His6-tagged MAP4K4 (A7 to W1320) expressed in Sf9 insect cells at 20 nM using phosphatidylserine as substrate incubated for 60 mins in presence of [33P]-ATP by scintillation counting method
[2] = target: Tyrosine-protein kinase ABL1 (Homo sapiens) (UniProt P00519); test: Inhibition of recombinant human N-terminal GST/His6-tagged ABL1 wt internal (P118 to S535) expressed in Sf9 insect cells at 20 nM using phosphatidylserine as substrate incubated for 60 mins in presence of [33P]-ATP by scintillation counting method
[3] = target: Interleukin-1 receptor-associated kinase 4 (Homo sapiens) (UniProt Q9NWZ3); test: Inhibition of recombinant human IRAK4 C-terminal (A104 to S460) expressed in Sf9 insect cells at 20 nM using phosphatidylserine as substrate incubated for 60 mins in presence of [33P]-ATP by scintillation counting method
[4] = target: Protein kinase C theta type (Homo sapiens) (UniProt Q04759); test: Inhibition of recombinant human full length N-terminal GST and C-terminal His6-tagged PKC-theta (M1 to S706) expressed in Sf9 insect cells at 20 nM using phosphatidylserine as substrate incubated for 60 mins in presence of [33P]-ATP by scintillation counting method
[5] = target: BDNF/NT-3 growth factors receptor (Homo sapiens, UniProt Q16620); test: Inhibition of human GST-tagged TRKB (456 to 822) expressed in baculovirus expression system using TK-biotin peptide as substrate incubated for 45 min by TR-FRET assay
[6] = target: Ribosomal protein S6 kinase alpha-5 (Homo sapiens) (UniProt O75582); test: Inhibition of RPS6KA5 (unknown origin) at 20 nM using phosphatidylserine as substrate incubated for 60 mins in presence of [33P]-ATP by scintillation counting method
[7] = system: Rattus norvegicus; test: Antinociceptive activity in CFA induced thermal hypersensitivity Sprague-Dawley rat model assessed as increase in paw withdrawal latency at 20 mg/kg, po after 1 hr; assay type: functional, organism-based
[8] = target: cGMP-dependent protein kinase 1 (Homo sapiens) (UniProt Q13976); test: Inhibition of PRKG1 (unknown origin) at 20 nM using cGMP as substrate incubated for 60 mins in presence of [33P]-ATP by scintillation counting method
[9] = system: Rattus norvegicus; test: Antinociceptive activity in CFA induced thermal hypersensitivity Sprague-Dawley rat model assessed as increase in paw withdrawal latency at 100 mg/kg, po after 1 hr; assay type: functional, organism-based
[10] = Unbound drug level in brain of CFA induced Sprague-Dawley rat at 20 mg/kg, po after 1 hr; assay type: ADME, organism-based; conditions: in vivo
[11] = system: Rattus norvegicus; test: Unbound drug level in plasma of CFA induced Sprague-Dawley rat at 20 mg/kg, po after 1 hr; assay type: ADME, organism-based; conditions: in vivo

Chain of BDNF/NT-3 growth factors receptor (Q16620 whole entry): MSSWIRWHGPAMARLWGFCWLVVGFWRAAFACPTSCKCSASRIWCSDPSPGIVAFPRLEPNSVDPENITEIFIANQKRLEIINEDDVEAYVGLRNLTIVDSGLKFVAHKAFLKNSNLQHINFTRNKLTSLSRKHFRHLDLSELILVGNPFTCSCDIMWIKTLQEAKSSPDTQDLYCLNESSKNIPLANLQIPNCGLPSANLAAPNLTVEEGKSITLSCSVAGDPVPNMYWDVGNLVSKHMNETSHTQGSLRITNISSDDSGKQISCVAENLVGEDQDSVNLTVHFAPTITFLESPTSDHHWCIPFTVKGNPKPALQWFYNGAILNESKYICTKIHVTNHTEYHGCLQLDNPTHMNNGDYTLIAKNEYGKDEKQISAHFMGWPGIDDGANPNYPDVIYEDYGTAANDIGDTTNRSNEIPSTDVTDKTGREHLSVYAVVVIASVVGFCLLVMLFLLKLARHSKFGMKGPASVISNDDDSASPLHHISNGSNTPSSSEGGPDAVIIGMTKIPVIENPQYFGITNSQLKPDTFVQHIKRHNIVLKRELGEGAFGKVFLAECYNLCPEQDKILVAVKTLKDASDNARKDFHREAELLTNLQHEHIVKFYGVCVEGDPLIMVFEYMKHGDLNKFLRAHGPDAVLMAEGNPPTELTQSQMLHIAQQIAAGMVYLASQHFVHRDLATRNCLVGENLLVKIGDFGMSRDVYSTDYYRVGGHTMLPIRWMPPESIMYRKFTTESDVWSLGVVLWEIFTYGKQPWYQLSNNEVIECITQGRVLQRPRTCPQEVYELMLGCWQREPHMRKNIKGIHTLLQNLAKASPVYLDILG
Chain of Ribosomal protein S6 kinase alpha-5 (Homo sapiens) (O75582 whole entry, looked up): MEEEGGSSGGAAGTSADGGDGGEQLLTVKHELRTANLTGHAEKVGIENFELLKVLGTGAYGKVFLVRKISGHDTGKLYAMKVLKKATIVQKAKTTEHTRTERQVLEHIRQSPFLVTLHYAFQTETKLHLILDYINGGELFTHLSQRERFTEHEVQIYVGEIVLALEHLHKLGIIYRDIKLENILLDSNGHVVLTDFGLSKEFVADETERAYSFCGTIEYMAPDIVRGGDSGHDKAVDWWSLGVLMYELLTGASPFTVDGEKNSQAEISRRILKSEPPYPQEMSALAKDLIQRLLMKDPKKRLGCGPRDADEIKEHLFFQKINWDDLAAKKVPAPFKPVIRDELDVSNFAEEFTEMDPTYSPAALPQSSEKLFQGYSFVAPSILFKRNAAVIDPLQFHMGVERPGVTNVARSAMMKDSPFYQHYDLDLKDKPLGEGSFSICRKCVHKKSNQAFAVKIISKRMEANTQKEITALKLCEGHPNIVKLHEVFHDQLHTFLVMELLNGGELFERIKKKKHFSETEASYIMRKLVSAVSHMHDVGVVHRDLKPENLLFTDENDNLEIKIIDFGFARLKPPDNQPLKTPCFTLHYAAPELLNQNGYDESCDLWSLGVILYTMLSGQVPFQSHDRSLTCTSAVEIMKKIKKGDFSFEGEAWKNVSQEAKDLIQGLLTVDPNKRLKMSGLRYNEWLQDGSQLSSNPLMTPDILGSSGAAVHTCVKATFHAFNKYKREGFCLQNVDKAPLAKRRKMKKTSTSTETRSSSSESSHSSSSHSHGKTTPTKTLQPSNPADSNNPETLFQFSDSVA
Chain of Mitogen-activated protein kinase kinase kinase kinase 4 (Homo sapiens) (O95819 2-1239 limits assumed): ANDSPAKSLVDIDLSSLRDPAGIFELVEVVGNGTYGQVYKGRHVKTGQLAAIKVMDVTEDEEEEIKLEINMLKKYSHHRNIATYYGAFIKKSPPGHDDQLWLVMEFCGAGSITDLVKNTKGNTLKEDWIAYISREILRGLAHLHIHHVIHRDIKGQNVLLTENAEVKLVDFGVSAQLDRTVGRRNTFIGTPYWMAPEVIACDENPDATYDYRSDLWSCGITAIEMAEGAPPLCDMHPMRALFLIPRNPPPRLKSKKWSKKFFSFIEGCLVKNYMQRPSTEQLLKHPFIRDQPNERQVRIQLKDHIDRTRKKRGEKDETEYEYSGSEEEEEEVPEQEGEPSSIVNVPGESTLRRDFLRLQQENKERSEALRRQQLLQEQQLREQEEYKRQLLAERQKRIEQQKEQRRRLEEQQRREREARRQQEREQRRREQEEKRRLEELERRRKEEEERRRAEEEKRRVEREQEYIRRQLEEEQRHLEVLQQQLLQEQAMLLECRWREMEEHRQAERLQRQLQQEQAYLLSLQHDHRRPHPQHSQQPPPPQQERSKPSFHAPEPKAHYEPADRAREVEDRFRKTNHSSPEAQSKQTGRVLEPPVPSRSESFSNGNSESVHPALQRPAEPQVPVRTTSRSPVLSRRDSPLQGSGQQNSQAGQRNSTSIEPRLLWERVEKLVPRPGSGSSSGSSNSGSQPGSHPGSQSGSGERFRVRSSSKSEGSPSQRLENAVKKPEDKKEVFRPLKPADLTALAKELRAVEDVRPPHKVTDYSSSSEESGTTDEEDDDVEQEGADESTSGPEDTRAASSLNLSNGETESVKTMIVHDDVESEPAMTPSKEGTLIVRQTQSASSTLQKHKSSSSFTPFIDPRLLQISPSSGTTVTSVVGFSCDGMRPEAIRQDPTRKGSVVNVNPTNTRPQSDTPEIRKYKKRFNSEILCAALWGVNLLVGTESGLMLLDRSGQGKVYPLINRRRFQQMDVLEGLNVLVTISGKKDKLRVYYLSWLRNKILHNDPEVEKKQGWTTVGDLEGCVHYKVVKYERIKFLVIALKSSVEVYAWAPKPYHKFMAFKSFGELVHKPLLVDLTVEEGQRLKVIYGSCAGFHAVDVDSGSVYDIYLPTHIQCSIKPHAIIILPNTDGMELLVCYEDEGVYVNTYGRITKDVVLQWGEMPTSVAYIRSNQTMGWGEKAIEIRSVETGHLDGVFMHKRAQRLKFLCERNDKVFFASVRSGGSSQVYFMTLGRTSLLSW
Chain of cGMP-dependent protein kinase 1 (Homo sapiens) (Q13976 whole entry): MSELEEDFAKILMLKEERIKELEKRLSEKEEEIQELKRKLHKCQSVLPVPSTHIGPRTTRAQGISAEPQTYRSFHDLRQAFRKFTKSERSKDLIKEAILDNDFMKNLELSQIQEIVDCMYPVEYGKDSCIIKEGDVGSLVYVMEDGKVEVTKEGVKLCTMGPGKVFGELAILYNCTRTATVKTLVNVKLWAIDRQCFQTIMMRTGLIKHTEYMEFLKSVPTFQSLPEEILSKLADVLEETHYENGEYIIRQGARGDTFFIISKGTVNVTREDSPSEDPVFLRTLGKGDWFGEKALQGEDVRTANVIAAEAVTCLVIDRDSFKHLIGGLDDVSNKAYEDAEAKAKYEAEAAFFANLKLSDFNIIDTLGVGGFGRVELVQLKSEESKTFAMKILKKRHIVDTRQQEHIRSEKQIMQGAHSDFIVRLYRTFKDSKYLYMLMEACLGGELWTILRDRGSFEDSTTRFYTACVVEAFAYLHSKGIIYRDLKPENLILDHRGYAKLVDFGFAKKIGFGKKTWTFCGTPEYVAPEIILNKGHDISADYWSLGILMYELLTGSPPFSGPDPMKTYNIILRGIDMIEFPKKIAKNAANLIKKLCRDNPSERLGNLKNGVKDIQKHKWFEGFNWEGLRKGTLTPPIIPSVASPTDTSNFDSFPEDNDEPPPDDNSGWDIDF
Chain of Interleukin-1 receptor-associated kinase 4 (Homo sapiens) (Q9NWZ3 whole entry): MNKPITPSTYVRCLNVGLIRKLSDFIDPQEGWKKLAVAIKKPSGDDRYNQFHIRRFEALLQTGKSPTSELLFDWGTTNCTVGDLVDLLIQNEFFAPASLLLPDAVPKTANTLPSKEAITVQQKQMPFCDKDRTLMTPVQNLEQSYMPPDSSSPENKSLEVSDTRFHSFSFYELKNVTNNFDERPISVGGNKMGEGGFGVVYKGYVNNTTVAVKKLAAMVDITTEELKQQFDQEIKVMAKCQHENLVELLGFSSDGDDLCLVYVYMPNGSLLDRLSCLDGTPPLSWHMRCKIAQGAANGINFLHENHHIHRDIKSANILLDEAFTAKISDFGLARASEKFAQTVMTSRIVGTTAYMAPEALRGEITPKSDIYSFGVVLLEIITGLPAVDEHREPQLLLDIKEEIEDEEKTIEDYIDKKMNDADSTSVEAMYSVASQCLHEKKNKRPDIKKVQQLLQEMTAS
Chain of Protein kinase C theta type (Homo sapiens) (Q04759 whole entry, looked up): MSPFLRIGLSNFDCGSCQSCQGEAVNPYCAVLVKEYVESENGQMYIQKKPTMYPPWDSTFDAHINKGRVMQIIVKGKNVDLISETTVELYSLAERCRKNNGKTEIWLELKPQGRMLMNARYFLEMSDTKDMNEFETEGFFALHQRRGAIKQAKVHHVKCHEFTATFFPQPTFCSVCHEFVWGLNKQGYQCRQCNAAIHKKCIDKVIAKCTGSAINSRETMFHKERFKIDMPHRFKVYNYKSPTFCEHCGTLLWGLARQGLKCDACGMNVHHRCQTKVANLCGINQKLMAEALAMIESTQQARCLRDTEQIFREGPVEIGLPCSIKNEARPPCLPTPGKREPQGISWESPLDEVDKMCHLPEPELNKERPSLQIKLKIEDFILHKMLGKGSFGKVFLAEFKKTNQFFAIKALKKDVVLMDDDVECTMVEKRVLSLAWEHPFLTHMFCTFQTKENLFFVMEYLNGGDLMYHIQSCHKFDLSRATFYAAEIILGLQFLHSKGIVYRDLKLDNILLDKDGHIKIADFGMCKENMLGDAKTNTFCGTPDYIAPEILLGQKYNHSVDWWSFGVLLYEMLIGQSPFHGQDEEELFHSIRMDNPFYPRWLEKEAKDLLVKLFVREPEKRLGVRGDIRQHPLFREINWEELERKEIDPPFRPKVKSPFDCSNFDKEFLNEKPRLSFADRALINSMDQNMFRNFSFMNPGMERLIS

Cn1cc(-c2n[nH]c3ccc(NCc4cc(F)ccc4S(C)(=O)=O)cc23)cn1
inhibition [1]: 5%
inhibition [2]: 1%
inhibition [3]: -8%
inhibition [4]: -2%
IC50 [5]: 0.2 nM
inhibition [6]: 5%
Activity [7]: Active
inhibition [8]: -5%
Activity [9]: Active
Drug uptake(free) [10]: 1.5 nM
Cp(f) [11]: 70.9 nM
